{
  "source": "BindingDB's records for patent US20250388593",
  "about": "(Mitsubishi Tanabe Pharma, 2025)",
  "target": "T1, Protein cereblon [318-426] (UniProt Q96SW2)",
  "T1 construct": "318-426",
  "T1 sequence (Q96SW2 318-426)": "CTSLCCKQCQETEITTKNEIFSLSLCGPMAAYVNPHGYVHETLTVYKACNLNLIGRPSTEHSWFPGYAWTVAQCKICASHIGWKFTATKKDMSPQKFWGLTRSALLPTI",
  "assay": "Measurement of Molecular Interactions Using Surface Plasmon Resonance (SPR)",
  "method": "The instrument used was the Biacore T200 (manufactured by Cytiva). […] The sensor chip used was Sensor Chip SA (manufactured by Cytiva). The CRBN truncate was immobilized using the affinity between SA (streptavidin) on the sensor chip and the Avi-tag. The running buffer was a mixture of 10 mM HEPES pH 7.5, 150 mM NaCl, 1 mM TCEP, 0.005% Tween 20, and 2% DMSO. […] Contact time and dissociation time were set at 60 seconds and 120 seconds, respectively.",
  "data": [
    {"smiles": "Cn1c(=O)n(C2CCCC(=O)NC2=O)c2cccc(CCCCCCCC(=O)OC(C)(C)C)c21", "note": "(stereo unspecified) [US20250388593, Example 207]", "values": [
      {"measurement": "Kd", "result": "> 100", "unit": "µM"}
    ]},
    {"smiles": "CC(C)(C)OC(=O)CN1CCC2(CCCC(=O)NC2=O)CC1=O", "note": "(stereo unspecified) [US20250388593, Example 107]", "values": [
      {"measurement": "Kd", "result": "> 100", "unit": "µM"}
    ]},
    {"smiles": "CC(C)(C)OC(=O)CCCCCNc1ccc(N2CCC3(CCCC(=O)NC3=O)CC2=O)cc1", "note": "(stereo unspecified) [US20250388593, Example 301]", "values": [
      {"measurement": "Kd", "result": "> 100", "unit": "µM"}
    ]},
    {"smiles": "CC(C)(C)OC(=O)N1CCC(c2ccc(OC3CCCCNC3=O)cc2)CC1", "note": "(stereo unspecified) [US20250388593, Example 276]", "values": [
      {"measurement": "Kd", "result": "> 100", "unit": "µM"}
    ]},
    {"smiles": "CC(C)(C)OC(=O)NCCCCCCCNc1ccc(N2CCC3(CCCC(=O)NC3=O)CC2=O)cc1", "note": "(stereo unspecified) [US20250388593, Example 304]", "values": [
      {"measurement": "Kd", "result": "> 100", "unit": "µM"}
    ]},
    {"smiles": "CC(C)(C)OC(=O)CCCCCNc1cccc(C2CCCC(=O)NC2=O)c1", "note": "(stereo unspecified) [US20250388593, Example 298]", "values": [
      {"measurement": "Kd", "result": "> 100", "unit": "µM"}
    ]},
    {"smiles": "Cn1c(=O)n(C2CCCC(=O)NC2=O)c2ccc(CCCCC(=O)OC(C)(C)C)cc21", "note": "(stereo unspecified) [US20250388593, Example 217]", "values": [
      {"measurement": "Kd", "result": "< 50", "unit": "µM"}
    ]},
    {"smiles": "CN(C1CCCC(=O)NC1=O)S(=O)(=O)c1ccc(CCCCC(=O)OC(C)(C)C)cc1", "note": "(stereo unspecified) [US20250388593, Example 279]", "values": [
      {"measurement": "Kd", "result": "> 100", "unit": "µM"}
    ]},
    {"smiles": "Cn1c(=O)n(C2CCCC(=O)NC2=O)c2cccc(CCC(=O)OC(C)(C)C)c21", "note": "(stereo unspecified) [US20250388593, Example 213]", "values": [
      {"measurement": "Kd", "result": "< 50", "unit": "µM"}
    ]},
    {"smiles": "CC(C)(C)OC(=O)N1CCN(C(=O)CN2CCC3(CCCC(=O)NC3=O)CC2=O)CC1", "note": "(stereo unspecified) [US20250388593, Example 98]", "values": [
      {"measurement": "Kd", "result": "> 100", "unit": "µM"}
    ]},
    {"smiles": "O=C1CCCC(N2C(=O)OCC3=C2C=CC([N+](=O)[O-])C3)C(=O)N1", "note": "(stereo unspecified) [US20250388593, Example 274]", "values": [
      {"measurement": "Kd", "result": "> 100", "unit": "µM"}
    ]},
    {"smiles": "O=C1CCCC(c2cc([N+](=O)[O-])ccc2Cl)C(=O)N1", "note": "(stereo unspecified) [US20250388593, Example 63]", "values": [
      {"measurement": "Kd", "result": "> 100", "unit": "µM"}
    ]},
    {"smiles": "COC(=O)C(CCCCNC(=O)OCc1ccccc1)Oc1ccccc1[N+](=O)[O-]", "note": "(stereo unspecified) [US20250388593, Example 66-1]", "values": [
      {"measurement": "Kd", "result": "> 100", "unit": "µM"}
    ]},
    {"smiles": "CC(C)(C)OC(=O)CCCCCNc1ccc(N2CCC(N3CCCC(=O)NC3=O)C2=O)cc1", "note": "(stereo unspecified) [US20250388593, Example 302]", "values": [
      {"measurement": "Kd", "result": "> 100", "unit": "µM"}
    ]},
    {"smiles": "O=C1CCCC(C2=CC([N+](=O)[O-])CC=C2)C(=O)N1", "note": "(stereo unspecified) [US20250388593, Example 62]", "values": [
      {"measurement": "Kd", "result": "> 100", "unit": "µM"}
    ]},
    {"smiles": "CC(C)(C)OC(=O)C1=CC(C2CCCC(=O)NC2=O)CC=C1", "note": "(stereo unspecified) [US20250388593, Example 60]", "values": [
      {"measurement": "Kd", "result": "in the range around 75 µM"}
    ]},
    {"smiles": "Cn1nc(N2CC=CC(=O)NC2=O)c2ccc(C3CCN(C(=O)OC(C)(C)C)CC3)cc21", "note": "[US20250388593, Example 282]", "values": [
      {"measurement": "Kd", "result": "> 100", "unit": "µM"}
    ]},
    {"smiles": "Cn1c(=O)n(C2CCCC(=O)NC2=O)c2ccc(C#CCCCCCC(=O)OC(C)(C)C)cc21", "note": "(stereo unspecified) [US20250388593, Example 215]", "values": [
      {"measurement": "Kd", "result": "> 100", "unit": "µM"}
    ]},
    {"smiles": "Cn1c(=O)n(C2CCCC(=O)NC2=O)c2ccc(CCCCCCCC(=O)OC(C)(C)C)cc21", "note": "(stereo unspecified) [US20250388593, Example 216]", "values": [
      {"measurement": "Kd", "result": "> 100", "unit": "µM"}
    ]},
    {"smiles": "CC(C)(C)OC(=O)CCc1nn(C2CCCC(=O)NC2=O)c2ccccc12", "note": "(stereo unspecified) [US20250388593, Example 137]", "values": [
      {"measurement": "Kd", "result": "< 50", "unit": "µM"}
    ]},
    {"smiles": "CC(=O)Nc1ccc2nc(N3CCCC(=O)NC3=O)sc2c1", "note": "[US20250388593, Example 119]", "values": [
      {"measurement": "Kd", "result": "< 50", "unit": "µM"}
    ]}
  ]
}
